Patent US20060116400A1, “Oxazolidinone and/or isoxazoline derivatives as antibacterial agents” (AstraZeneca AB, priority 2002, published 2006)

Structure (SMILES) | melting point
COCCOC(=O)OC[C@@H](O)[C@@H]1CC(c2ccc(-c3ccc(N4C[C@H](Cn5ccnn5)OC4=O)cc3F)cn2)=NO1 [Example 58, (2R)-2-[(5S)-3-(5-{2-Fluoro-4-[(5R)-2-oxo-5-(1H-1,2,3-triazol-1-ylmethyl)-1,3-oxazolidin-3-yl]phenyl}pyridin-2-yl)-4,5-dihydroisoxazol-5-yl]-2-hydroxyethyl 2-methoxyethyl carbonate] | 125 °C
CC(C)(O)C1CC(c2ccc(-c3ccc(N4C[C@H](Cn5ccnn5)OC4=O)cc3F)cn2)=NO1 (stereo partly drawn) [Example 15, (5R)-3-(3-Fluoro-4-{6-[5-(1-hydroxy-1-methylethyl)-4,5-dihydroisoxazol-3-yl]pyridin-3-yl}phenyl)-5-(1H-1,2,3-triazol-1-ylmethyl)-1,3-oxazolidin-2-one] | 197 °C
CC(C)C(OC(=O)Cc1ccc2ccccc2c1)C1CC(c2ccc(-c3ccc(N4C[C@H](Cn5ccnn5)OC4=O)cc3F)cn2)=NO1 (single isomer, unassigned) [Example 30] | 85 °C
O=C1O[C@@H](Cn2ccnn2)CN1c1ccc(-c2ccc(C3=NOC(CS(=O)(=O)CCc4ccncc4)C3)nc2)c(F)c1 (stereo partly drawn) [Example 35, (5R)-3-{3-Fluoro-4-[6-(5-{[(2-pyridin-4-ylethyl)sulfonyl]methyl}-4,5-dihydroisoxazol-3-yl)pyridin-3-yl]phenyl}-5-(1H-1,2,3-triazol-1-ylmethyl)-1,3-oxazolidin-2-one] | 195 °C
O=C1O[C@@H](Cn2ccnn2)CN1c1ccc(-c2ccc(C3=NOC(CS(=O)(=O)CCO)C3)nc2)c(F)c1 (stereo partly drawn) [Example 25, (5R)-3-{3-Fluoro-4-[6-(5-{[(2-hydroxyethyl)sulfonyl]methyl}-4,5-dihydroisoxazol-3-yl)pyridin-3-yl]phenyl}-5-(1H-1,2,3-triazol-1-ylmethyl)-1,3-oxazolidin-2-one] | 210 °C
COCCC(=O)OC[C@@H](O)[C@@H]1CC(c2ccc(-c3ccc(N4C[C@H](Cn5ccnn5)OC4=O)cc3F)cn2)=NO1 [Example 56, (2R)-2-[(5S)-3-(5-{2-Fluoro-4-[(5R)-2-oxo-5-(1H-1,2,3-triazol-1-ylmethyl)-1,3-oxazolidin-3-yl]phenyl}pyridin-2-yl)-4,5-dihydroisoxazol-5-yl]-2-hydroxyethyl 3-methoxypropanoate] | 130 °C
O=C1O[C@@H](Cn2ccnn2)CN1c1ccc(-c2ccc(C3=NOC(C4(O)CCCC4)C3)nc2)c(F)c1 (stereo partly drawn) [Example 28, (5R)-3-(3-Fluoro-4-{6-[5-(1-hydroxycyclopentyl)-4,5-dihydroisoxazol-3-yl]pyridin-3-yl}phenyl)-5-(1H-1,2,3-triazol-1-ylmethyl)-1,3-oxazolidin-2-one] | 225 °C
CC(C)C(O)C1CC(c2ccc(-c3ccc(N4C[C@H](Cn5ccnn5)OC4=O)cc3F)cn2)=NO1 (single isomer, unassigned) [Example 32] | 155 °C
N.N.N.N.O=C1O[C@@H](Cn2ccnn2)CN1c1ccc(-c2ccc(C3=NO[C@H]([C@@H](COP(=O)(O)O)OP(=O)(O)O)C3)nc2)c(F)c1 [Example 59, Phosphoric acid mono-(1R)-[(5R)-2-(3-{(5S)-[2-fluoro-4-(2-oxo-5-[1,2,3]triazol-1-ylmethyl-oxazolidin-3-yl)-phenyl]-pyridin-2-yl}-4,5-dihydro-isoxazol-5-yl)-2-phosphonooxy-ethyl]ester, tetrakis ammonium salt] | 175 to 180 °C (dec.)

Continued, values first:

melting point | Structure (SMILES)
180 to 190 °C | CN(C)C(=O)C1CC(c2ccc(-c3ccc(N4C[C@H](Cn5ccnn5)OC4=O)cc3F)cn2)=NO1 (stereo partly drawn) [Example 23, 3-(5-{2-Fluoro-4-[(5R)-2-oxo-5-(1H-1,2,3-triazol-1-ylmethyl)-1,3-oxazolidin-3-yl]phenyl}pyridin-2-yl)-N,N-dimethyl-4,5-dihydroisoxazole-5-carboxamide]
181 °C | O=C1O[C@@H](Cn2ccnn2)CN1c1ccc(-c2ccc(C3=NOC(CNCCc4ccncc4)C3)nc2)c(F)c1 (stereo partly drawn) [Example 33, (5R)-3-{3-Fluoro-4-[6-(5-{[(2-pyridin-4-ylethyl)amino]methyl}-4,5-dihydroisoxazol-3-yl)pyridin-3-yl]phenyl}-5-(1H-1,2,3-triazol-1-ylmethyl)-1,3-oxazolidin-2-one]
210 °C | O=C(OC[C@@H](O)[C@@H]1CC(c2ccc(-c3ccc(N4C[C@H](Cn5ccnn5)OC4=O)cc3F)cn2)=NO1)c1cccnc1 [Example 57, (2R)-2-[(5S)-3-(5-{2-Fluoro-4-[(5R)-2-oxo-5-(1H-1,2,3-triazol-1-ylmethyl)-1,3-oxazolidin-3-yl]phenyl}pyridin-2-yl)-4,5-dihydroisoxazol-5-yl]-2-hydroxyethyl nicotinate]
185 °C | O=C1O[C@@H](Cn2ccnn2)CN1c1ccc(-c2ccc(C3=NO[C@H](COC(F)(F)F)C3)nc2)c(F)c1 [Example 61]
172 °C | COC[C@@H]1CC(c2ccc(-c3ccc(N4C[C@H](Cn5ccnn5)OC4=O)cc3F)cn2)=NO1 [Example 64, (5R)-3-(3-Fluoro-4-{6-[(5S)-5-(methoxymethyl)-4,5-dihydroisoxazol-3-yl]pyridin-3-yl}phenyl)-5-(1H-1,2,3-triazol-1-ylmethyl)-1,3-oxazolidin-2-one]
162 °C | O=C1O[C@@H](Cn2ccnn2)CN1c1ccc(-c2ccc(C3=NO[C@H](CSCCO)C3)nc2)c(F)c1 [Example 60, (5R)-3-{3-Fluoro-4-[6-((5S)-5-{[(2-hydroxyethyl)thio]methyl}-4,5-dihydroisoxazol-3-yl)pyridin-3-yl]phenyl}-5-(1H-1,2,3-triazol-1-ylmethyl)-1,3-oxazolidin-2-one]
165 to 168 °C | CC(C)(C)OC(=O)C1CC(c2ccc(-c3ccc(N4C[C@H](Cn5ccnn5)OC4=O)cc3F)cn2)=NO1 (stereo partly drawn) [Example 21]
73 °C | CN1CCC(O)(C2CC(c3ccc(-c4ccc(N5C[C@H](Cn6ccnn6)OC5=O)cc4F)cn3)=NO2)CC1 (stereo partly drawn) [Example 34, (5R)-3-(3-Fluoro-4-{6-[5-(4-hydroxy-1-methylpiperidin-4-yl)-4,5-dihydroisoxazol-3-yl]pyridin-3-yl}phenyl)-5-(1H-1,2,3-triazol-1-ylmethyl)-1,3-oxazolidin-2-one]
199 °C | O=C1O[C@@H](Cn2ccnn2)CN1c1ccc(-c2ccc(C3=NO[C@H](COCC(F)(F)F)C3)nc2)c(F)c1 [Example 62]
185 to 195 °C | CNC(=O)C1CC(c2ccc(-c3ccc(N4C[C@H](Cn5ccnn5)OC4=O)cc3F)cn2)=NO1 (stereo partly drawn) [Example 24, 3-(5-{2-Fluoro-4-[(5R)-2-oxo-5-(1H-1,2,3-triazol-1-ylmethyl)-1,3-oxazolidin-3-yl]phenyl}pyridin-2-yl)-N-methyl-4,5-dihydroisoxazole-5-carboxamide]
182 °C | O=C1O[C@@H](Cn2ccnn2)CN1c1ccc(-c2ccc(C3=NOC(C(O)c4ccccc4)C3)nc2)c(F)c1 (single isomer, unassigned) [Example 26]
167 °C | CCN(CC)CCC(=O)OC[C@@H]1CC(c2ccc(-c3ccc(N4C[C@H](Cn5ccnn5)OC4=O)cc3F)cn2)=NO1 [Example 43, [(5S)-3-(5-{2-Fluoro-4-[(5R)-2-oxo-5-(1H-1,2,3-triazol-1-ylmethyl)-1,3-oxazolidin-3-yl]phenyl}pyridin-2-yl)-4,5-dihydroisoxazol-5-yl]methyl N,N-diethyl-β-alaninate]
